Here are results for one molecule from publication PMC8449129, “Single tracer-based protocol for broad-spectrum kinase profiling in live cells with NanoBRET” (STAR Protocols, 2021).

Usually inhibition stands for the drop in the measured response relative to a control, in per cent. As usually defined, the % inhibition is the relative decrease from the control value, in per cent. A high value points to a response far below the control.

The target of one test is T1, NTRK2 (Homo sapiens, UniProt Q16620).
T1 construct: full-length kinase, C-terminal NanoLuc fusion, transfected HEK293 cells
Description: NanoBRET target engagement, Tracer K10 displacement in live HEK293 cells. In kind it is cell-based. Particulars: […] h, […] C, n = […]. Background: BRET reads energy transfer from a luciferase to a nearby fluorophore.

In the next test the target is T2, EPHB4 (Homo sapiens, UniProt P54760).
T2 construct: full-length kinase, C-terminal NanoLuc fusion, transfected HEK293 cells
Described as above. Particulars: […] h, […] C, n = […]. In kind it is cell-based.

A further test concerns the target T3, EPHA6 (Homo sapiens, UniProt Q9UF33).
T3 construct: full-length kinase, C-terminal NanoLuc fusion, transfected HEK293 cells
Described as above. In kind it is cell-based. Particulars: […] h, […] C, n = […].

A further test has as its target T4, EPHB1 (Homo sapiens, UniProt P54762).
T4 construct: full-length kinase, C-terminal NanoLuc fusion, transfected HEK293 cells
The test is described as above. In kind it is cell-based. Particulars: […] h, […] C, n = […].

The target in the next test is T5, EPHA1 (Homo sapiens, UniProt P21709).
T5 construct: full-length kinase, C-terminal NanoLuc fusion, transfected HEK293 cells
Described as above. In kind it is cell-based. Particulars: […] h, […] C, n = […].

A further test has as its target STK33 (Homo sapiens, UniProt Q9BYT3). Description: cell-based. Particulars: HEK293; D=N; E=250; % occupancy, tracer K10 displacement. The arrangement: species or system HEK293; NanoBRET live-cell target engagement; % occupancy from displacement of tracer K10 on NanoLuc-kinase fusions, mean n=3. As to the method:
(§1) • 18. Prepare 10× test compounds in OptiMEM • a. Dilute the test compound to 1000× in DMSO (or the test compound solvent). […] Add 10μL per well of 10× test compound or 10μL of the DMSO control to the 96-well plates containing cells with 1× tracer. Mix on orbital shaker for 15 s at 900 rpm. • 20. Incubate the plate at 37°C + 5% CO2 incubator for 2hr. Allow plate to cool to RT for ∼15 min, then proceed to NanoBRET^TM Assay section below. • 21. Immediately before the BRET measurements, prepare 3× Complete NanoBRET^TM Nano-Glo® Substrate in OptiMEM without serum or phenol red. […] Mix gently by inverting 5–10 times in a conical tube. (The final concentration of Extracellular NanoLuc inhibitor in the 3× solution is 60 μM, for a working concentration of 20 μM.) • a. Note: 3× solutions should be used within 1.5 h after preparation. • 22. […] Incubate 2–3 min at RT. Following addition of NanoBRET^TM Nano-Glo® Substrate, measure donor emission (e.g., 450 nm) and acceptor emission (e.g., 610 nm or 630 nm) using a NanoBRET™-compatible luminometer. Fractional occupancy Quantitation • 2. Determine Fractional Occupancy with the following equation; % Occupancy = [1 – (X – Z)/( Y – Z)]∗100 • Where: • X = BRET in the presence of the test compound and tracer, • Y = BRET in the presence of the 100% BRET Control (Tracer + DMSO) • Z = BRET for the Zero BRET Control, e.g., • a. […]

Another test has as its target LTK (Homo sapiens, UniProt P29376). Description: cell-based. On the set-up: species or system HEK293; NanoBRET live-cell target engagement; % occupancy from displacement of tracer K10 on NanoLuc-kinase fusions, mean n=3. Particulars: D=C; E=100; % occupancy, tracer K10 displacement; 1 µM; binder. How it is done: as §1
Another test concerns the target T6, NTRK1 (Homo sapiens, UniProt P04629).
T6 construct: full-length kinase, C-terminal NanoLuc fusion, transfected HEK293 cells
Briefly: NanoBRET target engagement, Tracer K10 displacement in live HEK293 cells. In kind it is cell-based. Particulars: […] h, […] C, n = […].

A further test concerns the target T7, AXL (Homo sapiens, UniProt P30530).
T7 construct: full-length kinase, C-terminal NanoLuc fusion, transfected HEK293 cells
The description is as above. In kind it is cell-based. Particulars: […] h, […] C, n = […].

A further test concerns the target T8, AURKC (Homo sapiens, UniProt Q9UQB9).
T8 construct: full-length kinase, C-terminal NanoLuc fusion, transfected HEK293 cells
The description is as above. Particulars: […] h, […] C, n = […]. In kind it is cell-based.

A further test addresses T9, EPHA4 (Homo sapiens, UniProt P54764).
T9 construct: full-length kinase, C-terminal NanoLuc fusion, transfected HEK293 cells
The description is as above. Particulars: […] h, […] C, n = […]. In kind it is cell-based.

A further test addresses HIPK4 (Homo sapiens, UniProt Q8NE63). Briefly: cell-based. On the set-up: NanoBRET live-cell target engagement; % occupancy from displacement of tracer K10 on NanoLuc-kinase fusions, mean n=3. Particulars: HEK293, read-out: % inhibition. How it is done:
(§2) • 18. Prepare 10× test compounds in OptiMEM • a. Dilute the test compound to 1000× in DMSO (or the test compound solvent). […] Add 10μL per well of 10× test compound or 10μL of the DMSO control to the 96-well plates containing cells with 1× tracer. Mix on orbital shaker for 15 s at 900 rpm. • 20. Incubate the plate at 37°C + 5% CO2 incubator for 2hr. Allow plate to cool to RT for ∼15 min, then proceed to NanoBRET^TM Assay section below. • 21. Immediately before the BRET measurements, prepare 3× Complete NanoBRET^TM Nano-Glo® Substrate in OptiMEM without serum or phenol red. […] Mix gently by inverting 5–10 times in a conical tube. (The final concentration of Extracellular NanoLuc inhibitor in the 3× solution is 60 μM, for a working concentration of 20 μM.) • a. Note: 3× solutions should be used within 1.5 h after preparation. • 22. […] Incubate 2–3 min at RT. Following addition of NanoBRET^TM Nano-Glo® Substrate, measure donor emission (e.g., 450 nm) and acceptor emission (e.g., 610 nm or 630 nm) using a NanoBRET™-compatible luminometer. Fractional occupancy Quantitation • 2. Determine Fractional Occupancy with the following equation; % Occupancy = [1 – (X – Z)/( Y – Z)]∗100 • Where: • X = BRET in the presence of the test compound and tracer, • Y = BRET in the presence of the 100% BRET Control (Tracer + DMSO) • Z = BRET for the Zero BRET Control, e.g., • a. BRET from the NanoLuc Control Vector • b. BRET from Kinase/NanoLuc fusion + saturating dose of control test compound.

The target of the next test is MAP3K10 (Homo sapiens, UniProt Q02779). Description: cell-based. On the set-up: NanoBRET live-cell target engagement; % occupancy from displacement of tracer K10 on NanoLuc-kinase fusions, mean n=3. Particulars: HEK293, read-out: % inhibition. How it is done:
as §2

In another test the target is CDKL1 (Homo sapiens, UniProt Q00532). Briefly: cell-based. Particulars: HEK293, read-out: % inhibition. On the set-up: NanoBRET live-cell target engagement; % occupancy from displacement of tracer K10 on NanoLuc-kinase fusions, mean n=3. As to the method: as §2
A further test deals with MELK (Homo sapiens, UniProt Q14680). Briefly: cell-based. Particulars: HEK293, read-out: % inhibition. On the set-up: NanoBRET live-cell target engagement; % occupancy from displacement of tracer K10 on NanoLuc-kinase fusions, mean n=3. How it is done:
as §2

For another test, the target named is CDK18 (Homo sapiens, UniProt Q07002). Briefly: cell-based. The arrangement: NanoBRET live-cell target engagement; % occupancy from displacement of tracer K10 on NanoLuc-kinase fusions, mean n=3. Particulars: HEK293, read-out: % inhibition. How it is done: as §2
A further test concerns the target PHKG1 (Homo sapiens, UniProt Q16816). Description: cell-based. The arrangement: NanoBRET live-cell target engagement; % occupancy from displacement of tracer K10 on NanoLuc-kinase fusions, mean n=3. Particulars: HEK293, read-out: % inhibition. How it is done: as §2
Another test concerns the target NEK2 (Homo sapiens, UniProt P51955). Briefly: cell-based. On the set-up: NanoBRET live-cell target engagement; % occupancy from displacement of tracer K10 on NanoLuc-kinase fusions, mean n=3. Particulars: HEK293, read-out: % inhibition. As to the method:
as §2

In a further test the target is PKMYT1 (Homo sapiens, UniProt Q99640). Description: cell-based. On the set-up: NanoBRET live-cell target engagement; % occupancy from displacement of tracer K10 on NanoLuc-kinase fusions, mean n=3. Particulars: HEK293, read-out: % inhibition. As to the method:
as §2

For the next test, the target named is CLK2 (Homo sapiens, UniProt P49760). Briefly: cell-based. Particulars: HEK293, read-out: % inhibition. The arrangement: NanoBRET live-cell target engagement; % occupancy from displacement of tracer K10 on NanoLuc-kinase fusions, mean n=3. How it is done: as §2
Another test has as its target CDKL3 (Homo sapiens, UniProt Q8IVW4). Briefly: cell-based. On the set-up: NanoBRET live-cell target engagement; % occupancy from displacement of tracer K10 on NanoLuc-kinase fusions, mean n=3. Particulars: HEK293, read-out: % inhibition. As to the method:
as §2

T2 sequence (P54760 16-987): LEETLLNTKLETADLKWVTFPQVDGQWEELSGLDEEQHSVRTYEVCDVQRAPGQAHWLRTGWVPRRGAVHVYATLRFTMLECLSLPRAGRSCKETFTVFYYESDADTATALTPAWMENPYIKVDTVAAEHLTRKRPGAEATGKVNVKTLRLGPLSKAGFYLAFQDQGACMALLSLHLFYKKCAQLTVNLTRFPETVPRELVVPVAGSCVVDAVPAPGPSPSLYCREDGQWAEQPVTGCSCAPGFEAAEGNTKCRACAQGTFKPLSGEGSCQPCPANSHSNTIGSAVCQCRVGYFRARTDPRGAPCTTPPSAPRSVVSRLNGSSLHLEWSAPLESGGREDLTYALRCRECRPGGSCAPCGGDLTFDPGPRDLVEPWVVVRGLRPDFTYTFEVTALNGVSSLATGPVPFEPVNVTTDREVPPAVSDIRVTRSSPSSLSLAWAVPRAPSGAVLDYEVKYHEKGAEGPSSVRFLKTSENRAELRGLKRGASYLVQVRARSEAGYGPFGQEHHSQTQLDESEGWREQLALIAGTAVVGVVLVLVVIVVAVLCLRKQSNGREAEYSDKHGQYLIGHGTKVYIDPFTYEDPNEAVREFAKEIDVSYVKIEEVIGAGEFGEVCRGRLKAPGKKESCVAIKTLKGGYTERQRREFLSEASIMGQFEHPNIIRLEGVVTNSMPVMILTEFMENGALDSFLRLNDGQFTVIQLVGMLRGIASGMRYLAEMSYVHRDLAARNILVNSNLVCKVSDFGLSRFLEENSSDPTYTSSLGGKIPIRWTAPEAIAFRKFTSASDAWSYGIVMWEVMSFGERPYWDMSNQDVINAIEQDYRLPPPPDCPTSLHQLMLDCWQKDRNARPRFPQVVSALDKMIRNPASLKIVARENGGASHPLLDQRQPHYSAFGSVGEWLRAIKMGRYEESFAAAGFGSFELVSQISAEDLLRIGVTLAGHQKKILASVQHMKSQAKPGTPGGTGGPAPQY
HIPK4, sequence (Q8NE63 whole entry, the tested form may be a part): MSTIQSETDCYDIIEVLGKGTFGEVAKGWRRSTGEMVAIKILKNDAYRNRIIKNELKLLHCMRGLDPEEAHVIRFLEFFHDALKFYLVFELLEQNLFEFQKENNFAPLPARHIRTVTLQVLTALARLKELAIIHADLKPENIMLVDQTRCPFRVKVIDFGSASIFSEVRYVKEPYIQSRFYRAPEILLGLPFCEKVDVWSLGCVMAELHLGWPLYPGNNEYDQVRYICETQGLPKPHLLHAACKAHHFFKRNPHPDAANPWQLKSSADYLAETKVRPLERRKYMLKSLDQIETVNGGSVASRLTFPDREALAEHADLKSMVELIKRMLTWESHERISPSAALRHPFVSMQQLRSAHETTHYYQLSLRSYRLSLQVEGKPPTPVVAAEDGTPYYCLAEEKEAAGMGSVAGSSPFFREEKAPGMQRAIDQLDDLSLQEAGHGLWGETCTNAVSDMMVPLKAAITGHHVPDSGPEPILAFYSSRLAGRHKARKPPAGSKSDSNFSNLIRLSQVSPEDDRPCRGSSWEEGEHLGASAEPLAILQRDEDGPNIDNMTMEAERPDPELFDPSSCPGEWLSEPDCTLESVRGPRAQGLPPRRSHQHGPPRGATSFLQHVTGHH
MAP3K10, sequence (Q02779 whole entry, the tested form may be a part): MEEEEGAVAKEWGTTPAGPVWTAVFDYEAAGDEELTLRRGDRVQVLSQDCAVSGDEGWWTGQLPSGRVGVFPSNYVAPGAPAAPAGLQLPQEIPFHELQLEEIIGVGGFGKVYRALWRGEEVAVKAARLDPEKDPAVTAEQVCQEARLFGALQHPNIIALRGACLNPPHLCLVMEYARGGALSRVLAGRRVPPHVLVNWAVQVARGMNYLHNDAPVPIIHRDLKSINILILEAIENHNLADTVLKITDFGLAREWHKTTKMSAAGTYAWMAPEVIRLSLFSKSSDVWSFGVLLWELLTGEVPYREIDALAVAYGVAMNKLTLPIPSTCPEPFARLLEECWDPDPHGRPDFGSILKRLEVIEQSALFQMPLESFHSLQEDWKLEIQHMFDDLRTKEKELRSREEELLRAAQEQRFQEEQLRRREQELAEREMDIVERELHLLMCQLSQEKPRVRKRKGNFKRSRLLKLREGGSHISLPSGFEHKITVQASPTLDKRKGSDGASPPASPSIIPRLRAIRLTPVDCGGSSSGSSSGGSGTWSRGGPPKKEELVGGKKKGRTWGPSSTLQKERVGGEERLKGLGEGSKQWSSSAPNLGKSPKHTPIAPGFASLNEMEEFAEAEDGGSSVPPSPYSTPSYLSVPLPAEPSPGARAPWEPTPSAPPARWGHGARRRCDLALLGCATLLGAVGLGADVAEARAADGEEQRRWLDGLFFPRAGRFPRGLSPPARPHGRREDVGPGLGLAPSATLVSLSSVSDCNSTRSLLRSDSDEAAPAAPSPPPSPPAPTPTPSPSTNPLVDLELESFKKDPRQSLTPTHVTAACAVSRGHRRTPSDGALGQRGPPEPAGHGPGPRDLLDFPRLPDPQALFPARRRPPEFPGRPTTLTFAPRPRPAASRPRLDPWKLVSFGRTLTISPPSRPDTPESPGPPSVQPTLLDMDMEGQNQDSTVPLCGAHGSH
STK33, sequence (Q9BYT3 whole entry, the tested form may be a part): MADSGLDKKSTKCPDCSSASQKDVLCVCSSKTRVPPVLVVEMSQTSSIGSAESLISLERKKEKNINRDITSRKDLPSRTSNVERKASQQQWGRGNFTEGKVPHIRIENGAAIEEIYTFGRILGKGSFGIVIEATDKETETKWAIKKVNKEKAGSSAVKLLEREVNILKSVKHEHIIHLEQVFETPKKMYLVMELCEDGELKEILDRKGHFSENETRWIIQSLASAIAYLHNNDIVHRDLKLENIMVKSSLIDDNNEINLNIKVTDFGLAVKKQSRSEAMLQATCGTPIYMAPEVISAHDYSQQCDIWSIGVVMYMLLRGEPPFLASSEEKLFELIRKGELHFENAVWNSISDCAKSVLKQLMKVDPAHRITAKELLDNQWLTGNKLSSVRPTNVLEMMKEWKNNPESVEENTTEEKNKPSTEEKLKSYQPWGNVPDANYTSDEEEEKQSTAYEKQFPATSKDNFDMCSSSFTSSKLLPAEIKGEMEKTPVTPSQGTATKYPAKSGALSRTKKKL
T4 sequence (P54762 18-984): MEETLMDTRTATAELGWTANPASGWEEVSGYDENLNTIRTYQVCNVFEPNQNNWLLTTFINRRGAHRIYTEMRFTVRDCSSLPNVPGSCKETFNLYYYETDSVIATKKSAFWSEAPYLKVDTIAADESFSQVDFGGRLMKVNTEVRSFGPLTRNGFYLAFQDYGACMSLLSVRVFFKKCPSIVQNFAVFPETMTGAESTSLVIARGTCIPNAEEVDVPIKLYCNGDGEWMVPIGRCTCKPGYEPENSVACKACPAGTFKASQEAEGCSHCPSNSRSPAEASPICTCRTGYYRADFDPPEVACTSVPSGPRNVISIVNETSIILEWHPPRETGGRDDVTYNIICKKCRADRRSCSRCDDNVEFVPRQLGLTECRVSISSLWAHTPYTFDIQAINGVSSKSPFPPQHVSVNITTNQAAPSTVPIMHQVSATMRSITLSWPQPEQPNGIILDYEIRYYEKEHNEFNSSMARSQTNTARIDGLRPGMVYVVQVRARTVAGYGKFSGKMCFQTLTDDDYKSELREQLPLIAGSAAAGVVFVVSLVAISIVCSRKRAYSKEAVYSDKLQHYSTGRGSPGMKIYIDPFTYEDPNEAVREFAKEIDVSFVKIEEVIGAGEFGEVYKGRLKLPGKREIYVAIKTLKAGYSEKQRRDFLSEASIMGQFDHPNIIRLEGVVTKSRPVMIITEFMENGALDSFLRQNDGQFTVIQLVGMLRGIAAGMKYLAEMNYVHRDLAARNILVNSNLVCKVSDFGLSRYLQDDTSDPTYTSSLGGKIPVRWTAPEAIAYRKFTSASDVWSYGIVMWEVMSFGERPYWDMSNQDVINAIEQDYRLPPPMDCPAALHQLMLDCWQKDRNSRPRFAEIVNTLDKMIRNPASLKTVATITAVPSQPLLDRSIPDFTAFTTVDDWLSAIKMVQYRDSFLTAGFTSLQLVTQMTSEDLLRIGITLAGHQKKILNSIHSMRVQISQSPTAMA
MELK, sequence (Q14680 whole entry, the tested form may be a part): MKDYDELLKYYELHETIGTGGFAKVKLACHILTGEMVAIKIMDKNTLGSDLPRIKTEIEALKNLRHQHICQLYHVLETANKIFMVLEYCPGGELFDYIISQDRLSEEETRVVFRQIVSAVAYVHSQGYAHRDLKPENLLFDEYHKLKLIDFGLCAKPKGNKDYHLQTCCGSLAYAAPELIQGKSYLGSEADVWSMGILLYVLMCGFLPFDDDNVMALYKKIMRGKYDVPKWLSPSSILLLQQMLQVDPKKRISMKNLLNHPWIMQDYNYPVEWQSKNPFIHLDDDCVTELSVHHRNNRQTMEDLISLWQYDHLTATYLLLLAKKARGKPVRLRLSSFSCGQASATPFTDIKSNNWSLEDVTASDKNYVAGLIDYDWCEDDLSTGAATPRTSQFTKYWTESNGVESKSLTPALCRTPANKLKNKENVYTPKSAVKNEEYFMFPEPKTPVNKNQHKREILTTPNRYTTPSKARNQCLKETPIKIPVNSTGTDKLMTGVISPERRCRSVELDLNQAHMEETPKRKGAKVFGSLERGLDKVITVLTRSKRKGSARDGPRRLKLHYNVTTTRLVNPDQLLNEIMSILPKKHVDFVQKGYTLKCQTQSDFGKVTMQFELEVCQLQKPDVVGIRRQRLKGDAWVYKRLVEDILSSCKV
CDKL1, sequence (Q00532 whole entry, the tested form may be a part): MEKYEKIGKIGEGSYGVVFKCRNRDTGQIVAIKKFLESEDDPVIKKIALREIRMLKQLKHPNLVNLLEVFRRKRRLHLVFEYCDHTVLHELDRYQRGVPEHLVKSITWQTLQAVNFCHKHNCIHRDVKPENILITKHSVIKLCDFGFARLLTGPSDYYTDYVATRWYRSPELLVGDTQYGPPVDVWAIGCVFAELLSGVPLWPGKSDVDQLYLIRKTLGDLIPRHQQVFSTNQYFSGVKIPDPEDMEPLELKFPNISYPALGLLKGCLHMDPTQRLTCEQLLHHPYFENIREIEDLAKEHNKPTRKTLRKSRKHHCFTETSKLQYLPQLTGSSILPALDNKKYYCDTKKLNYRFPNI
Description for AURKC: NanoBRET target engagement, Tracer K10 displacement in live HEK293 cells on AURKC
Description for AXL: NanoBRET target engagement, Tracer K10 displacement in live HEK293 cells on AXL
Description for EPHA1: NanoBRET target engagement, Tracer K10 displacement in live HEK293 cells on EPHA1
Description for EPHA4: NanoBRET target engagement, Tracer K10 displacement in live HEK293 cells on EPHA4
Description for EPHA6: NanoBRET target engagement, Tracer K10 displacement in live HEK293 cells on EPHA6
Description for EPHB1: NanoBRET target engagement, Tracer K10 displacement in live HEK293 cells on EPHB1
Description for EPHB4: NanoBRET target engagement, Tracer K10 displacement in live HEK293 cells on EPHB4
Description for NTRK1: NanoBRET target engagement, Tracer K10 displacement in live HEK293 cells on NTRK1
Description for NTRK2: NanoBRET target engagement, Tracer K10 displacement in live HEK293 cells on NTRK2

Take `C[C@@H](Oc1cc(-c2cnn(C3CCNCC3)c2)cnc1N)c1c(Cl)ccc(F)c1Cl` [crizotinib]: the “Crizotinib % occupancy, 1 uM” value on NTRK2 came to 85 ± 2.3%; on EPHB4, 62 ± 3.6%; on EPHA6, 64 ± 5.1%; on EPHB1 it was 68 ± 2.0%; on EPHA1 it was 75 ± 2.2%; at NTRK1, 71 ± 2.5%. Also, the figures for the “Crizotinib % occupancy, 1 uM” value on AXL, on AURKC and on EPHA4 were 68 ± 1.5%, 48 ± 4.2% and 53 ± 4.4%, respectively. The inhibition at 1 µM at STK33 was -3%; at HIPK4, -9%; on MAP3K10 it was -1%; at CDKL1, 2%; at MELK, -2%; at CDK18 it was 2%. Besides, the inhibition at 1 µM is -3% on PHKG1; 6% at NEK2; 6% at PKMYT1; 1% on CLK2; 8% on CDKL3. The “% inhibition” value on LTK is 87%.
